According to US20090082427A1, “Composition comprising wortmannin and its topical use for reducing human hair growth” (Reckitt Benckiser (UK) Limited, priority 2005, published 2009):

Experiments:
Type in all cases: cell-based, human
[1] = test system: Anagen (IV) intact hair follicles; assay: growth of isolated intact Anagen (IV) hair follicles, length increase after 8 days; conditions: CM 26, CV 9
Protocol: A study was carried out to assess the effects of wortmannin on growth of Anagen (IV) intact hair follicles isolated intact from 2 females.
(§1) A composition was prepared comprising wortmannin at 10 milli-molar in a vehicle of dimethyl sulfoxide (DMSO). The levels of wortmannin were such that when the composition was added to the growth medium in the experiments, the level of wortmannin in the experimental medium was 50, 70, 100 or 140 micro-molar and the respective level of DMSO was 0.5%, 0.7%, 1.0%, 1.4% by weight.
(§2) The control experiments were carried out using as the growth medium CM (control medium only as detailed below) and CV (control medium containing the DMSO vehicle but free of wortmannin). The experiments using the wortmannin composition were carried out using the wortmannin compositions in the control medium.
For experiments with intact hair follicle, Control Medium was Williams E medium supplemented with fungizone, penicilin/streptomycin, L-glutamine, insulin-like growth factor and hydrocortisone.
(§3) Results in terms of percentage cell number change after 8 days of the cells/follicles in the compositions were as follows in table 1.

[2] = test system: follicular dermal papilla fibroblasts; assay: cell proliferation of follicular dermal papilla fibroblasts, cell number after 8 days; conditions: wortmannin 70 μm in medium, CV = 100
Protocol: (§4) A study was carried out to assess the effects of wortmannin on cell proliferation for dermal fibroblasts, follicular dermal papilla fibroblasts derived from 5 normal adults (3 females and 2 males).
as §1, §2
(§5) For experiments with dermal fibroblasts and follicular dermal papilla fibroblasts, Control Medium was RPMI 1640 media supplemented with penicillin/streptomycin, L-glutamine and Foetal Calf Serum.
as §3

[3] = test system: hair follicle keratinocytes; assay: cell proliferation of hair follicle keratinocytes, cell number after 8 days; conditions: CV = 100
Protocol: A study carried out to assess the effects of wortmannin on cell proliferation for hair follicle keratinocytes was performed on cells from 1 normal healthy individual.
as §1, §2
For experiments with hair follicle keratinocytes, Control Medium was keratinocyte serum-free medium (KSF-M) medium supplemented with penicillin/streptomycin, L-glutamine, epidermal growth factor and bovine pituitary extract.
as §3

dermal fibroblasts = assay: cell proliferation of dermal fibroblasts, cell number after 8 days; conditions: wortmannin 70 μm in medium, CV (medium + DMSO vehicle) = 100
Protocol: as §4, §1, §2, §5, §3

Structure (SMILES): COC[C@H]1OC(=O)c2coc3c2[C@@]1(C)C1=C(C3=O)[C@@H]2CCC(=O)[C@@]2(C)C[C@H]1OC(C)=O [wortmannin, 11-(acetyloxy)-1,6b,7,8,9a,10,11,11b-octahydro-1-(methoxymethyl)-9a,11b-di-methyl-[1S-(1α, 6bα,9aβ,11α, 11bβ)]-3H-furo[4,3,2-de]indeno[4,5-h]-2-benzopyran-3,6,9-trione]
- Whole hair follicles (length increase in %) ([1]; wortmannin 70 μm in medium): 4%
- Whole hair follicles (length increase in %) ([1]; wortmannin 140 μm in medium): 4%
- dermal papilla fibroblasts percentage cell number (normalized on CV results) [2]: 34%
- Hair follicle keratinocytes percentage cell number (normalized on CV results) ([3]; wortmannin 50 μm in medium): 75%
- Hair follicle keratinocytes percentage cell number (normalized on CV results) ([3]; wortmannin 70 μm in medium): 40%
- Hair follicle keratinocytes percentage cell number (normalized on CV results) ([3]; wortmannin 100 μm in medium): 30%
- Dermal fibroblasts percentage cell number (normalized on CV results) (dermal fibroblasts): 25%
